The source of these data is US4564624A, “8-(Substituted N-phenylcarboxamidomethyl) pyrrolizidines and use thereof as antiarrhythmics” (Suntory Ltd., priority 1982, dated 1986).

Data set [1] concerns ventricular arrhythmias induced by chloroform. The data set can be described thus: Antiarrhythmic activity: prevention of chloroform-induced ventricular flutter and fibrillation in mice. The settings on record: for ED40 / ED50 / ED20: Mus musculus, sc, 0.5 h; for ED50: read-out: ED50 (95% confidence limit); for Therapeutic index: ratio of LD50 and ED50. The procedure: At the time when they ceased to breathe, electrocardiogram of each animal was recorded to observe the flutter and fibrillation of the ventricle.
The abnormalities of ventriculus as observed in these animals can be prevented by previous administration of a substance showing antiarrhythmic activity. A compound of this invention, at various dosages, was subcutaneously injected to mice grouped by 29-40 heads. Thirty minutes later these mice were treated with chloroform to induce arrhythmias. Prophylaxis percentages of the flutter and fibrillation of ventricle for each dosage were calculated.

For another data set, the system named is ddY strain male mice. The data set can be described thus: in vivo. The conditions noted are these: mouse.
A short description of the next data set: in vivo. The conditions noted are these: mouse.

By ED50 is commonly meant the dose at which the effect has come halfway, by size or by number of responders. Usually LD50 stands for the dose at which mortality reaches 50%. Turning to `Cc1ccccc1NC(=O)CC12CCCN1CCC2` [Compound 1, N-(2-methylphenyl)-8-pyrrolizidineacetamide], in data set [1], the ED40 worked out at 100 mg/kg and the ED50 was > 100 mg/kg. In the data set on ddY strain male mice, this compound registered an LD50 of 385 mg/kg.
As for `Cc1ccc(NC(=O)CC23CCCN2CCC3)cc1` [Compound 2, N-(4-methylphenyl)-8-pyrrolizidineacetamide], the ED20 in data set [1] came out at 100 mg/kg. The same compound came in with an LD50 with ddY strain male mice of 413 mg/kg.
As to `O=C(CC12CCCN1CCC2)Nc1ccccc1Cl` [Compound 3, N-(2-chlorophenyl)-8-pyrrolizidineacetamide], in data set [1], the ED20 came to 100 mg/kg and the 50% effective dose (ED50) was > 100 mg/kg. Besides, in the data set with ddY strain male mice, the LD50 turned out to be 347 mg/kg.
With `O=C(CC12CCCN1CCC2)Nc1ccccc1Br` [Compound 4, N-(2-bromophenyl)-8-pyrrolizidineacetamide], in data set [1], the ED50 amounted to 59 mg/kg and the Therapeutic index is 7.54. Further, the 50% lethal dose (LD50) in the data set with ddY strain male mice turned out to be 445 mg/kg.
As for `COc1ccccc1NC(=O)CC12CCCN1CCC2` [Compound 5, N-(2-methoxyphynyl)-8-pyrrolizidineacetamide], in data set [1], the ED40 was 100 mg/kg and the ED50 is > 100 mg/kg. Moreover, the 50% lethal dose (LD50) in the data set with ddY strain male mice worked out at 381 mg/kg.
In the case of `COc1cccc(NC(=O)CC23CCCN2CCC3)c1` [Compound 6, N-(3-methoxyphenyl)-8-pyrrolizidineacetamide], in data set [1], the ED40 is 100 mg/kg and the ED50 is > 100 mg/kg. In addition, the LD50 with ddY strain male mice came out at 417 mg/kg.
For the compound `COc1ccc(NC(=O)CC23CCCN2CCC3)cc1` [Compound 7, N-(4-methoxyphenyl)-8-pyrrolizidineacetamide], in data set [1], the ED50 turned out to be 60 mg/kg and the Therapeutic index is recorded as 4.80. The compound also had a median lethal dose (LD50) in the data set with ddY strain male mice of 288 mg/kg.
Regarding `Nc1ccccc1NC(=O)CC12CCCN1CCC2` [Compound 8, N-(2-aminophenyl)-8-pyrrolizidineacetamide], in data set [1], the ED50 is 100 mg/kg and the Therapeutic index is reported as 6.33. In the data set on ddY strain male mice, this compound returned a 50% lethal dose (LD50) of 633 mg/kg.
As for `Cc1cccc(NC(=O)CC23CCCN2CCC3)c1C` [Compound 9, N-(2,3-dimetylphenyl)-8-pyrrolizidineacetamide], in data set [1], the ED50 worked out at 64 mg/kg and the Therapeutic index was determined as 7.33. The compound further yielded an LD50 in the data set with ddY strain male mice of 469 mg/kg.
As to `Cc1ccc(NC(=O)CC23CCCN2CCC3)c(C)c1` [Compound 10, N-(2,4-dimethylphenyl)-8-pyrrolizidineacetamide], in data set [1], the ED40 was determined as 100 mg/kg and the ED50 is > 100 mg/kg. The 50% lethal dose (LD50) in the data set “in vivo” was 398 mg/kg.
Take `Cc1ccc(C)c(NC(=O)CC23CCCN2CCC3)c1` [Compound 11, N-(2,5-dimethylphenyl)-8-pyrrolizidineacetamide]: in data set [1], the 50% effective dose (ED50) was found to be 72 mg/kg and the Therapeutic index was 5.56. In addition, the LD50 in the data set with ddY strain male mice was 400 mg/kg.
For `Cc1cccc(C)c1NC(=O)CC12CCCN1CCC2` [Compound 12, N-(2,6-dimethylphenyl)-8-pyrrolizidineacetaminde], the median effective dose (ED50) in data set [1] stood at 24 mg/kg.
Consider `Cc1ccc(NC(=O)CC23CCCN2CCC3)cc1C` [Compound 13, N-(3,4-dimethylphenyl)-8-pyrrolizidineacetamide], for which, in data set [1], the median effective dose (ED50) came out at 76 mg/kg and the Therapeutic index was determined as 7.36. The compound further had a median lethal dose (LD50) with ddY strain male mice of 559 mg/kg.
The corresponding values for `Cc1cc(C)cc(NC(=O)CC23CCCN2CCC3)c1` [Compound 14, N-(3,5-dimethylphenyl)-8-pyrrolizidineacetamide] are 52 mg/kg, 6.83 and 355 mg/kg.
Turning to `COc1ccc(OC)c(NC(=O)CC23CCCN2CCC3)c1` [Compound 15, N-(2,5-dimethoxyphenyl)-8-pyrrolizidineacetamide], in data set [1], the ED50 came out at 90 mg/kg and the Therapeutic index is on record as 2.26. Moreover, the median lethal dose (LD50) in the data set on ddY strain male mice was 203 mg/kg.
With `O=C(CC12CCCN1CCC2)Nc1c(Cl)cccc1Cl` [Compound 16, N-(2,6-dichlorophenyl)-8-pyrrolizidineacetamide], in data set [1], the ED20 is 100 mg/kg and the ED50 was > 100 mg/kg. The compound further displayed an LD50 with ddY strain male mice of 200 mg/kg.
`CCc1cccc(CC)c1NC(=O)CC12CCCN1CCC2` [Compound 17, N-(2,6-diethylphenyl)-8-pyrrolizidineacetamide]: in data set [1], the ED50 stood at 28 mg/kg and the Therapeutic index came out at 9.93. The compound also displayed an LD50 in the data set on ddY strain male mice of 278 mg/kg.
In the case of `Cc1cc(C)c(NC(=O)CC23CCCN2CCC3)c(C)c1` [Compound 18, N-(2,4,6-trimethylphenyl)-8-pyrrolizidineacetamide], in data set [1], the 50% effective dose (ED50) worked out at 34 mg/kg and the Therapeutic index was determined as 9.09. Besides, the 50% lethal dose (LD50) in the data set with ddY strain male mice is 309 mg/kg.
